The text below walks through data of ChEMBL document CHEMBL3046582, “Antifeedant activity of sesquiterpenes from celastraceae” (1997).

The first assay has as its system Spodoptera littoralis. The assay is described as follows: Antifeedant activity against newly ecdysed fifth-instar larval stage of Spodoptera littoralis in compound-pretreated lettuce leaf disks assessed as consumed area of leaf disks at 1 ug/cm'2 measured at 30 min intervals for 4-5 hr post-drug exposure by choice test. In kind it is functional.
On to `CC(=O)O[C@H]1CCC(C)[C@]23OC(C)(C)[C@H]([C@@H](C(C)=O)[C@H](OC(=O)c4ccccc4)[C@]12OC(C)=O)[C@H]3OC(C)=O` (stereo partly specified), for which the FR50 is recorded as 0.44. Regarding `CC(=O)O[C@H]1CCC(C)[C@]23OC(C)(C)[C@H]([C@@H](O)[C@H](OC(=O)c4ccccc4)[C@]12OC(C)=O)[C@H]3OC(C)=O` (stereo partly specified), the FR50 stood at 0.25.

The subject of the next assay is Spodoptera littoralis. The assay is described as follows: Antifeedant activity against newly ecdysed fifth-instar larval stage of Spodoptera littoralis in compound-pretreated lettuce leaf disks assessed as consumed area of leaf disks at 10 ug/cm'2 measured at 30 min intervals for 4-5 hr post-drug exposure by choice test. The assay is classed as functional.
On to `CC(=O)O[C@H]1CCC(C)[C@]23OC(C)(C)[C@H]([C@@H](C(C)=O)[C@H](OC(=O)c4ccccc4)[C@]12OC(C)=O)[C@H]3OC(C)=O` (stereo partly specified), for which the FR50 is given as 0.04.

As for `CC(=O)O[C@H]1CCC(C)[C@]23OC(C)(C)[C@H]([C@@H](O)[C@H](OC(=O)c4ccccc4)[C@]12OC(C)=O)[C@H]3OC(C)=O` (stereo partly specified), the FR50 is given as 0.05.

With `CC(=O)O[C@@H]1[C@H]2C[C@H](OC(=O)c3ccccc3)[C@]3(C)[C@@H](OC(=O)c4ccccc4)[C@H](C(C)=O)C[C@](C)(O)[C@@]13OC2(C)C`, the FR50 was 0.35. On the same count and under the same terms, to `CC(=O)O[C@@H]1[C@@H](O)[C@@H]2[C@@H](OC(=O)c3cccnc3)[C@@]3(OC2(C)C)[C@@]1(C)[C@@H](OC(=O)c1ccccc1)CC[C@]3(C)O` belongs 0.74; to `CC(=O)O[C@H]1C[C@](C)(O)[C@]23OC(C)(C)[C@H]([C@@H](C(C)=O)[C@@H](OC(=O)c4ccccc4)[C@]2(OC(C)=O)[C@H]1OC(=O)c1ccccc1)[C@H]3OC(C)=O`, 0.35. Turning to `CC(=O)O[C@H]1[C@H](OC(=O)c2ccccc2)[C@@]2(C)[C@@H](O/C=C/c3ccccc3)C[C@@H]3[C@@H](OC(C)=O)[C@]2(OC3(C)C)[C@@](C)(O)[C@H]1O`, the FR50 came to 0.76. `CC(=O)O[C@@H]1[C@H]2C[C@H](OC(=O)c3ccccc3)[C@]3(C)[C@@H](OC(=O)c4ccccc4)[C@H](C(C)=O)[C@H](C(C)=O)[C@](C)(O)[C@@]13OC2(C)C`: the FR50 turned out to be 0.65. The same measure, in the same setting: with `COCCCC[C@@H]1[C@@H]2[C@@H](OC(C)=O)[C@@]3(OC2(C)C)[C@@](OC(C)=O)([C@@H](OC(=O)c2ccccc2)CC[C@]3(C)O)[C@@H]1OC(=O)c1ccccc1` the figure was 0.45; with TRIPHENYLSTANNYL ACETATE, 0.37.

Take `CC1(C)O[C@]23C[C@@H]1CC[C@]2(C)CC[C@H](O)[C@@]3(C)O`: the FR50 amounted to 0.52. Still for that read-out and setting: with `CC(=O)O[C@@H]1[C@H]2C[C@H](OC(=O)c3ccccc3)[C@]3(C)[C@@H](OC(=O)c4ccccc4)[C@H](O)[C@H](C(C)=O)[C@](C)(O)[C@@]13OC2(C)C` the figure was 0.56; with `CC(=O)O[C@H]1[C@@H]2[C@@H](O)[C@@]3(OC2(C)C)[C@](C)([C@H]1OC(=O)c1ccccc1)[C@@H](OC(=O)c1ccccc1)[C@H](OC(C)=O)[C@H](OC(C)=O)[C@]3(C)O`, 0.38. The same measure, in the same setting: to `CC(=O)O[C@H]1C[C@@H]2[C@@H](OC(=O)c3cccnc3)[C@@]3(OC2(C)C)[C@@]1(C)[C@@H](OC(=O)c1ccccc1)CC[C@]3(C)O` belongs 0.68.

With `CC(=O)O[C@@H]1[C@H]2[C@@H](OC(=O)c3ccccc3)[C@@H](OC(=O)c3ccccc3)[C@]3(OC(C)=O)[C@@H](OC(=O)c4ccccc4)CC[C@](C)(O)[C@@]13OC2(C)C`, the FR50 was found to be 0.76. As for `CC(=O)O[C@H]1[C@H](OC(=O)c2ccccc2)[C@@]2(C)[C@@H](OC(=O)c3ccccc3)C[C@@H]3[C@@H](O)[C@]2(OC3(C)C)[C@@](C)(O)[C@H]1O`, the FR50 is recorded as 0.6.

Take `CC(=O)O[C@@H]1[C@H]2C[C@H](OC(=O)c3ccccc3)[C@]3(C)[C@@H](OC(=O)c4ccccc4)[C@H](C(C)=O)[C@H](O)C(C)[C@@]13OC2(C)C` (stereo partly specified): the FR50 was 0.63. As for `CC(=O)O[C@@H]1[C@H]2C(=O)[C@@H](OC(=O)c3ccccc3)[C@]3(O)[C@@H](OC(C)=O)[C@@H](C(C)=O)CC(C)[C@@]13OC2(C)C` (stereo partly specified), the FR50 is 0.41. Same read-out and setting: with `CC(=O)O[C@H]1[C@H](OC(=O)c2ccccc2)[C@@]2(C)[C@@H](OC(=O)c3ccccc3)C[C@H]3C[C@]2(OC3(C)C)[C@@](C)(O)[C@H]1O` the figure was 0.61; with `CC(=O)O[C@@H]1[C@H]2C[C@H](OC(=O)c3ccccc3)[C@]3(OC(C)=O)[C@@H](OC(C)=O)[C@@H](C(C)=O)CC(C)[C@@]13OC2(C)C` (stereo partly specified), 0.36.
